Experimental data: patent publication US11965159B2, “Compositions and methods for regulating proteins and nucleic acids activities” (THE BROAD INSTITUTE, INC., priority 2019, dated 2024)

Target: T1, dCas9-cytidine deaminase conjugate (BE3) (UniProt P14739+P38483+Q99ZW2, D10A)
T1 construct: His6 (N); made in house; host or cells: E. coli BL21 Star (DE3); purified protein lipofected as BE3:gRNA RNP into HEK293T cells
Assay: BE3 base-editing of EMX1 gene in HEK293T cells
Assay type: cell-based
Conditions: 1.25-20 μM, 72 h; BE3:gRNA ribonucleoprotein delivery
Method: Protein transfection of base editor BE3 into HEK293T cells. HEK293T cells were seeded on 48-well BioCoat® poly-D-lysine plates (Corning®) in 250 μL of antibiotic-free medium and transfected at ˜70% confluency. Prior to protein transfection, cells were incubated with 2 μL of DMSO-suspended BRD7087 or BRD5779 at the indicated concentration for 2-3 hours. BE3 protein was incubated with 1.1× molar excess of EMX1-targeting sgRNA at a final concentration ratio of 200 nM: 220 nM (based on a total well volume of 275 μL). The complex was mixed with 0.2 μL of compound for five minutes, incubated with 1.5 μL Lipofectamine™ 2000 (THERMOFISHER) and transfected according to the manufacturer's protocol plasmid delivery. […]
Purifications and sequencing of genomic DNA. […] Barcoded samples were pooled and purified by gel extraction (QIAGEN) before quantification using the Qubit™ dsDNA HS Kit (THERMOFISHER) and qPCR (KAPA BioSystems) according to the manufacturer's instructions. Sequencing of pooled samples was performed using a single-end read from 260 to 300 bases on the MiSeq™ ([…]) according to the manufacturer's instructions.
Analysis of base-edited sequences. Nucleotide frequencies were analyzed using a previously described MATLAB script 5. Briefly, the reads were aligned to the reference sequence via the Smith-Waterman algorithm. […]

Q: With `COc1ccc(-c2ccc3c(c2)[C@H]2[C@H](CCN2Cc2ccncc2)[C@@H](CO)N3)cc1` [BRD5779, ((3aR,4S,9bR)-8-(4-Methoxyphenyl)-1-(pyridin-4-ylmethyl)-2,3,3a,4,5,9b-hexahydro-1H-pyrrolo[3,2-c]quinolin-4-yl)methanol] as the compound, how does the “inhibition of BE3-mediated base-editing (C→T conversion, EMX1)” value read?
A: Its value is “efficient and dose-dependent inhibition”.

Q: With `OC[C@H]1Nc2ccc(-c3cccc(F)c3)cc2[C@H]2[C@@H]1CCN2Cc1ccncc1` [BRD7087, ((3aR,4S,9bR)-8-(3-Fluorophenyl)-1-(pyridin-4-ylmethyl)-2,3,3a,4,5,9b-hexahydro-1H-pyrrolo[3,2-c]quinolin-4-yl)methanol] as the compound, how does the “inhibition of BE3-mediated base-editing (C→T conversion, EMX1)” value read?
A: The value was “efficient and dose-dependent inhibition”.
